Assays:
mTRPM8 = target: T1, mTRPM8 (Mus musculus, UniProt Q8R4D5); experiment: Whole-cell current recordings, mTRPM8; type: cell-based, murine
T1 construct: YFP or GFP; expressed in transfected cells; host or cells: HEK293T
Experimental: (§1) To elucidate the specificity of HCQ inhibition on TRPV3, we conducted whole-cell current recordings on other known pruritus-related TRP channels, such as hTRPA1, mTRPV1, mTRPV4, and mTRPM8 (Fig. 3, A and F). […] Because of the relatively larger inhibition of HCQ on mTRPM8 current, we tested the concentration dependence of HCQ on mTRPM8 channels.
(§2) HEK293T cells are cultured using Dulbecco's modified Eagle's medium containing 10% fetal bovine serum and 1% penicillin-streptomycin in a cell incubator with 5% CO2 at 37 °C. Plasmids of murine TRPV1, TRPV4, TRPM8, and human TRPV3, TRPA1 are labeled with YFP or GFP as indicators for subsequent electrophysiological recordings. Complementary DNA constructs of ion channels were transiently transfected with Lipofectamine 3000 (Invitrogen). And 12 to 18 h after transient transfection, electrophysiological recordings were performed.
Patch-clamp recordings were carried out with a HEKA EPC10 amplifier controlled by PatchMaster software (HEKA; https://www.heka.com/products/products_main.html#soft_pm) ([36]). Patch pipettes were prepared from borosilicate glass and fire-polished to the resistance of 3 to 8 MΩ by P-97 puller for whole-cell recordings. For single-channel recordings, patch pipettes were fire-polished to a higher resistance of 6 to 10 MΩ. Both bath solution and pipette solution contained 130 mM NaCl, 10 mM glucose, 0.2 mM EDTA, and 3 mM Hepes and were adjusted to pH 7.2 to 7.4 with NaOH. Whole-cell recordings and single-channel recordings were performed at ± 80 mV. The current was sampled at 10 kHz and filtered at 2.9 kHz. All recordings were performed at room temperature (25 °C). A gravity-driven system (RSC-200, Bio-Logic) with freely rotated perfusion tubes was used for the perfusion of ligands. Bath and ligand solutions were delivered through separate tubes to minimize the mixing of solutions. […]
(§3) All data from whole-cell recordings were analyzed in Igor Pro (WaveMetrics). IC50 values were determined by fitting the Hill equation to concentration-response relationships. […]

hTRPA1 = target: T2, hTRPA1 (Homo sapiens, UniProt O75762); experiment: Whole-cell current recordings, hTRPA1; type: cell-based; details: 100 μM HCQ; current activated by 500 μM allyl isothiocyanate
T2 construct: YFP or GFP; expressed in transfected cells; host or cells: HEK293T
Experimental: as §1, §2
(§4) Patch-clamp recordings were carried out with a HEKA EPC10 amplifier controlled by PatchMaster software (HEKA; https://www.heka.com/products/products_main.html#soft_pm) ([36]). Patch pipettes were prepared from borosilicate glass and fire-polished to the resistance of 3 to 8 MΩ by P-97 puller for whole-cell recordings. For single-channel recordings, patch pipettes were fire-polished to a higher resistance of 6 to 10 MΩ. […]

mTRPV4 = target: T3, mTRPV4 (Mus musculus, UniProt Q9EPK8); experiment: Whole-cell current recordings, mTRPV4; type: cell-based, murine; details: 100 μM HCQ; current activated by 1 μM GSK1016790A
T3 construct: YFP or GFP; expressed in transfected cells; host or cells: HEK293T
Experimental: as §1, §2, §4

TRPV3 N671Q mutant = target: T4, TRPV3 N671Q mutant (Homo sapiens, UniProt Q8NET8, N671Q); experiment: Whole-cell recording of TRPV3 N671Q mutant; type: cell-based
T4 construct: YFP or GFP; expressed in transfected cells; host or cells: HEK293T
T4 sequence (Q8NET8 1-790 N671Q): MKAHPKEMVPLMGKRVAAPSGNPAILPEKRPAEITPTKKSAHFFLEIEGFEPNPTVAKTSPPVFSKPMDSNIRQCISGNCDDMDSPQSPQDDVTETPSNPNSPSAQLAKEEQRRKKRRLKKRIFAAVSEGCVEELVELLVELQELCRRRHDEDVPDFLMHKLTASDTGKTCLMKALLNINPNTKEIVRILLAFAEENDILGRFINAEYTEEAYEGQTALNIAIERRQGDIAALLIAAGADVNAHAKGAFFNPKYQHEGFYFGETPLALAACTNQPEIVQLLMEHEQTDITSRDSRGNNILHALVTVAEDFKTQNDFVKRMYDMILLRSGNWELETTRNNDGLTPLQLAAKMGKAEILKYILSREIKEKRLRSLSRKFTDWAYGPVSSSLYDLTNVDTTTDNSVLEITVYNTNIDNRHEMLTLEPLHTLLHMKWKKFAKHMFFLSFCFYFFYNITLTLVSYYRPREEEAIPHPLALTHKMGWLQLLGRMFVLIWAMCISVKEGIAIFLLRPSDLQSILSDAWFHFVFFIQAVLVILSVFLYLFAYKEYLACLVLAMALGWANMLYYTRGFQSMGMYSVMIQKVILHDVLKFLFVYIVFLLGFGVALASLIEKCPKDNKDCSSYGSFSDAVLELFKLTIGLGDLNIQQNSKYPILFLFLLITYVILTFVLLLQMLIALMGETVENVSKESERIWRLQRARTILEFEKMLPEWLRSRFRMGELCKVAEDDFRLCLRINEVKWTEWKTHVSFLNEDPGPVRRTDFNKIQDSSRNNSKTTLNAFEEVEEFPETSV
From the text: As we mentioned above, HCQ may act as a pore blocker of TRPV3. To probe the binding configuration of HCQ to TRPV3, we carried out molecular docking using Rosetta suite (https://rosettacommons.org) ([21]) and validated the docking models with point mutations in TRPV3 (Fig. 4A). […] Furthermore, when we introduced L670A to L591A mutant, we also observed a left shift on the concentration–response curve on this double mutant as compared to L591A mutant (Fig. 4H).
Figure 4 Residues of the pore domain are critical for HCQ inhibition on TRPV3.A, left panel, docking model of HCQ to the pore domain of TRPV3 structure (6uw4). Right panels, top view and side view of the HCQ-binding pocket. B-J, representative whole-cell recording of TRPV3 and mutants in response to 1 mM 2-APB, the mixture of 1 mM 2-APB and concentration gradients of HCQ with the holding potential of ± 80 mV. K, concentration–response curves of HCQ in WT TRPV3 and mutants (n = 3–5 cells). L, quantification of the inhibitory ratio of HCQ (100 μM) on WT, L591A, and N671Q. […]
as §3

T1 sequence (Q8R4D5 whole entry): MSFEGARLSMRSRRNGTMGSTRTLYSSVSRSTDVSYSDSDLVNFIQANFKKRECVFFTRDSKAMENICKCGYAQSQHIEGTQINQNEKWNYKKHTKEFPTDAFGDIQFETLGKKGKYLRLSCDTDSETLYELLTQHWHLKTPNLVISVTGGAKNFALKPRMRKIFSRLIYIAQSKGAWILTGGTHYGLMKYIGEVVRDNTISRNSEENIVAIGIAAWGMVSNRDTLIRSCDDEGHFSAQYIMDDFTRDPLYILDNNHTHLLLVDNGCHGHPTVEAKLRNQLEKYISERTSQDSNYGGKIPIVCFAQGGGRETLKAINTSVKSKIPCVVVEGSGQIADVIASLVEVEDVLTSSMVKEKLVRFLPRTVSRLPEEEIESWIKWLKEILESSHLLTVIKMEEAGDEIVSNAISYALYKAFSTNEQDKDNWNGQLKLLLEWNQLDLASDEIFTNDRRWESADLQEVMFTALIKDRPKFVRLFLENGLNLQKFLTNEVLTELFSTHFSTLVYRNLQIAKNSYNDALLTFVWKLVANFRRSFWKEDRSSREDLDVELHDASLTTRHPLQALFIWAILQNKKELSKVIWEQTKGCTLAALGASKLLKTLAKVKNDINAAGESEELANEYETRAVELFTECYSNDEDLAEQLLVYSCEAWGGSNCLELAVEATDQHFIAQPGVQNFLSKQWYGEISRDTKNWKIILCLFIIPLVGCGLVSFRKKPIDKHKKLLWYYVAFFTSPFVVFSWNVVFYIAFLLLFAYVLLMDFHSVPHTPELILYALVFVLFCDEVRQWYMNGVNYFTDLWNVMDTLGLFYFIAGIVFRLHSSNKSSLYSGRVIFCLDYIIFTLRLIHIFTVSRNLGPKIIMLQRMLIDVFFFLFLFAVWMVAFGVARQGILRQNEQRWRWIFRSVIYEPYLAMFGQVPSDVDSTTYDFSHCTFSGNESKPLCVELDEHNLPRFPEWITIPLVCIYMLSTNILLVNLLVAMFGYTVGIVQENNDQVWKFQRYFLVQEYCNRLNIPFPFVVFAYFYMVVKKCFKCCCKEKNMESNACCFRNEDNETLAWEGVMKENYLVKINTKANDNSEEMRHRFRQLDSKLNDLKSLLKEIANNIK
T2 sequence (O75762 whole entry): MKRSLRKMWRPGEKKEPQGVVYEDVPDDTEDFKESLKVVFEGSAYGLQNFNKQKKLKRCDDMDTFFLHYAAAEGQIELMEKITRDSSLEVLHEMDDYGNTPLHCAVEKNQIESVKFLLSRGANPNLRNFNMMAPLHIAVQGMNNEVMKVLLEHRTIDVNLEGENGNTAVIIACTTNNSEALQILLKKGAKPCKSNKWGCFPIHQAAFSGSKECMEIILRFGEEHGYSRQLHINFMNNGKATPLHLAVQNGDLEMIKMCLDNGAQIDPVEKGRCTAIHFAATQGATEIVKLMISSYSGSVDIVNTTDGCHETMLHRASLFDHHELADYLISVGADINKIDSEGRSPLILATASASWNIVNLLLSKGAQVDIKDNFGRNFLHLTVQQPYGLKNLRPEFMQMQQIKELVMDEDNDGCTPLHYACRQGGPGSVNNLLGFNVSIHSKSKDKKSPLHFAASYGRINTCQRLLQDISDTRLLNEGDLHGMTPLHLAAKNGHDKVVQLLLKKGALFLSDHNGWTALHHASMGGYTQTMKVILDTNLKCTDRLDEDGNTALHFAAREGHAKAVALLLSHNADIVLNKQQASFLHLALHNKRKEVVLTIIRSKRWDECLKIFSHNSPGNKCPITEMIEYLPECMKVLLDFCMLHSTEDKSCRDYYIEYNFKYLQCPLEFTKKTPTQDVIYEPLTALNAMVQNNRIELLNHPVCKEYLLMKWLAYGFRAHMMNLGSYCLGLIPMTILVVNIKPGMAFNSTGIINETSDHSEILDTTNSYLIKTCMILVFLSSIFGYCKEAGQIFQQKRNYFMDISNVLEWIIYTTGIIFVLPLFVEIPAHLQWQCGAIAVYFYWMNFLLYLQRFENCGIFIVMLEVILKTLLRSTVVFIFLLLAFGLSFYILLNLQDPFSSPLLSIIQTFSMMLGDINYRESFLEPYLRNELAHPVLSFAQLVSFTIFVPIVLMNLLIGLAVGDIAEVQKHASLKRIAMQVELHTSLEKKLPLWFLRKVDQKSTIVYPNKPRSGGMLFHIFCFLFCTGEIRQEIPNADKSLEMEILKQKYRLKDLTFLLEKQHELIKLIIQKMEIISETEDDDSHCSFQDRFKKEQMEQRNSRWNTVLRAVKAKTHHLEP
T3 sequence (Q9EPK8 whole entry): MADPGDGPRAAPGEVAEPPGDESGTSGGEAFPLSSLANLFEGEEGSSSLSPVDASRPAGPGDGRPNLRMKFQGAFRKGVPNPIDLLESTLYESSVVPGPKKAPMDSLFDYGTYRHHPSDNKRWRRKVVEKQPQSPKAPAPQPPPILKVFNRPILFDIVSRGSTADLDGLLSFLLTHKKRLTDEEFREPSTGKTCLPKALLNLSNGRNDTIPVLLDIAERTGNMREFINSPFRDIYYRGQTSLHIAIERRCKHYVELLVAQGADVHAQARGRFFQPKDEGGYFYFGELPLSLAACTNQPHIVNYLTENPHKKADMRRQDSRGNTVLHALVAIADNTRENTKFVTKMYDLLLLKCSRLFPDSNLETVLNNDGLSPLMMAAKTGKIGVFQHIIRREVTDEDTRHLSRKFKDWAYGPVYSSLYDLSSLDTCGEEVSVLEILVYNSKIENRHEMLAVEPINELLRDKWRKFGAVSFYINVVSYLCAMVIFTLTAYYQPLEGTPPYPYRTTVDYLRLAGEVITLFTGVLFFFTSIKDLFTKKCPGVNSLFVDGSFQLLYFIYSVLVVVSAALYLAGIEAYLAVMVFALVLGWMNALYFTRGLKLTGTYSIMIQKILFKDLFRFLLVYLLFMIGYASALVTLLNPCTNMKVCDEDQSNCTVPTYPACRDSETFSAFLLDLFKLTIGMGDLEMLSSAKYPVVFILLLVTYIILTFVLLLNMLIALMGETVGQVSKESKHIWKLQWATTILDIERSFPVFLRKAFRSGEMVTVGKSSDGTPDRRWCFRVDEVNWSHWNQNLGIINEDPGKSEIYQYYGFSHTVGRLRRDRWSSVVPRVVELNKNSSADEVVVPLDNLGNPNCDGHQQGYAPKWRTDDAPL

In the case of CCN(CCO)CCCC(C)Nc1ccnc2cc(Cl)ccc12 (stereo not shown) [HCQ, hydroxychloroquine], the “reduction of mTRPM8 current” value (mTRPM8; 100 μM HCQ, current activated by 1 mM menthol) is reported as 27.94% ± 10.91%, the IC50 (mTRPM8; concentration dependence, whole-cell, read-out: IC50 on mTRPM8 channels) is reported as 263 ± 88.6 µM and the “IC50 of mTRPM8 relative to IC50 of hTRPV3” value (mTRPM8; selectivity ratio) is reported as “more than 5 fold”. The “reduction of hTRPA1 current” value (hTRPA1) was 11.37% ± 4.10%, the “reduction of mTRPV4 current” value (mTRPV4) was 18.37% ± 11.21% and the inhibition at 100 µM (TRPV3 N671Q mutant; 100 μM HCQ) was 27.8%. It also gave an IC50 (TRPV3 N671Q mutant; 1 mM 2-APB, ± 80 mV) of 133 ± 8.6 µM.
